# Assay results from PMC5563081, “Modulating Protein-Protein Interactions of the Mitotic Polo-like Kinases to Target Mutant KRAS” (Cell Chemical Biology, 2017).
# Where two headings read alike, the source gives them in different places.
# Assays:
# [1] = test system: HeLa cells expressing KRAS G12D; test: Live-cell imaging of cell fate, HeLa KRAS G12D; format: cell-based, human; conditions: Poloppin at GI50 dose, 3% in DMSO controls
# Procedure: (§1) Five x10^4 cells were seeded on each well of 4-well coverglass Lab-Tek chambers in a volume of 800 μl. HeLa-G12D cells were induced with Doxycycline (Dox) 24h before seeding and kept in Dox for the rest of the experiment.
# (§2) For live cell imaging analysis image sequences were viewed using ImageJ software and cell fate was analysed manually. Time spent in mitosis for different groups was compared with a Kruskal-Wallis test and Dunn's multiple comparison correction.
# PLK1 PBD = PLK1 PBD (Homo sapiens, UniProt P53350); test: Isothermal titration calorimetry; format: binding; design: In all titrations, PBDaa345-603 protein was used at 25 μM; GST (N, cleaved yes); made in house; host or cells: E. coli C41; conditions: ITC, 20 °C
# Procedure: In all titrations, PBDaa345-603 protein was used at 25 μM and buffered in HEPES (50 mM, pH 7.4), NaCl (200 mM), and DTT (1mM). Protein was diluted into buffer with DMSO at 5% (v/v). Poloppin was prepared by diluting from DMSO stock into the same buffer containing DMSO at 5% (v/v). Great care was taken to match the concentration of DMSO in the ligand and protein samples as closely as possible. In a typical experiment, protein (25 μM) was loaded in the sample cell, and a total of 20 injections of 8μL were made at 2 min intervals from a 200 μL syringe rotating at 1000 rpm and loaded with ligand solution (0.5 mM). […] The thermodynamic parameters were obtained by fitting the data to a single-site binding model with a stoichiometry of 1. ITC experiments were performed at 20 °C with a MicroCal ITC200 instrument, and all data were analysed with the software implemented in Origin (version 7) ([Scott et al., 2015]).
# MEFs KRAS WT p53 MUT = test: Cell viability in MEFs, KRAS WT p53 MUT; format: cell-based; conditions: Mus musculus
# Procedure: KrasWT mouse embryonic fibroblasts (MEFs) were derived from conditional LSL-Trp53^R172H/+ embryos. LSL-Trp53^R172H/+, LSL-Kras^G12D/+ ([Hingorani et al., 2005]) strains were interbred to obtain LSL-Kras^G12D/+, LSL-Trp53^R172H/+ Kras^G12D embryos for MEF preparation. Briefly, MEFs were derived from E13.5 embryos after decapitation and evisceration. Finely minced tissue was passed through a 16-G needle two or three times before dissociated cells were cultured in DMEM with 10% FBS. Cre-mediated recombination to activate the Kras^G12D allele was induced via addition of 500nM 4-OH Tamoxifen to the culture media overnight.
# parental HeLa cells = test: Live-cell imaging of cell fate, parental HeLa; format: cell-based, human; conditions: wild-type HeLa
# Procedure: as §1, §2
# U2OS cells = test: Quantification of mitotic phenotypes by immunofluorescence; format: cell-based, human; conditions: 12.5 μM
# Procedure: Cells were plated on glass coverslips and incubated overnight. Cells were treated with compound diluted in medium for 24hrs. Medium was then removed and cells fixed in 20mM PIPES pH8, 20mM HEPES pH8, 5mM EGTA, 2mM MgCl, 0.2% Triton X-100 and 3.7% formaldehyde. Cells were washed in PBS containing 0.1% Tween-20 then incubated with anti-alpha tubulin antibody (Santa Cruz sc-32293) and anti-CREST antibody (Europa 90C-CS1058). Cells were washed then incubated with Alexa Fluor 568 labelled goat anti-mouse IgG (Invitrogen A11031) or Alexa Fluor 633 labelled goat anti-mouse IgG (Invitrogen A21052) and Alexa Fluor 488 goat anti-human IgG (Invitrogen A11013). Cells were washed and then mounted on glass slides in Vectashield mounting medium containing DAPI.
# HPAF II = test: Cell viability (SRB), HPAF II; format: cell-based; conditions: Homo sapiens, 72 h
# Procedure: SW48 Parental, SW48 G12D, Panc-1, HPAF-II, Panc 02.03 and Panc 05.04 cell lines were seeded overnight at 5000 cells per well in a 96 well plate in recommended media (ATCC). Compounds were added the following day and viability was measured at 72h using the sulforhodamine B (SRB) colorimetric assay as follows. Cells were fixed by replacing media with 1% v/v Trichloroacetic Acid (TCA) (Sigma-Aldrich) at 4°C and incubated for 1h also at 4°C. Wells were washed thoroughly with copious amounts of deionised water before staining with Sulforhodamine B (SRB) (Sigma-Aldrich) solution (0.057% w/v in 1% v/v Acetic Acid (VWR)) for 30 min. […] Fluorescence intensity was recorded at Ex540nm / Em590nm using a BMG Pherastar Plus plate reader ([Vichai and Kirtikara, 2006]).
# Pancreatic organoids were extracted and cultured as detailed above ([Boj et al., 2015]). […] Full-grown organoids were then treated with compounds for 72h and viability determined using CellTitre Glo 3D assay (Promega). […] The 96 well plates were treated with a dose range of compounds or DMSO, and viability was determined via SRB colorimetric assay. […]
# Cells were reverse-transfected with 50nM (SW48 parental, SW48 KRAS G12D and Panc-1) or 25nM (HeLa Flp-In T-REx parental cells) siRNA using Dharmafect (GE Dharmacon) as manufacturer’s recommendations. […] Viability was assessed after 72 hrs, with the SRB colorimetric assay. […]
# PLK1 PBD, sequence (P53350 345-603): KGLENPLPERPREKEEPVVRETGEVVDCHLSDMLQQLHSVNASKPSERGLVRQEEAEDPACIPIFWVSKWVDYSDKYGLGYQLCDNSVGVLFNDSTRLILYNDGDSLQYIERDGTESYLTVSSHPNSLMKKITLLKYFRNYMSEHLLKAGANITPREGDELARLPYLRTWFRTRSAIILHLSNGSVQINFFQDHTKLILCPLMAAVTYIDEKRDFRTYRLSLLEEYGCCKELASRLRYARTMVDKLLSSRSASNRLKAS
smiles,measurement,setting,value
O=C(O)CCc1ccc(-c2ccc(Br)cc2)n1-c1ccccc1C(F)(F)F [Poloppin],frequency of death in mitosis,[1],36%
same,Kd,PLK1 PBD,29.5 µM
same,GI50,MEFs KRAS WT p53 MUT; MEFs KRAS WT p53 MUT,51.1 ± 1.05 µM
same,GI50,MEFs KRAS WT p53 MUT; MEFs KRAS WT p53 MUT+4OHT,43.7 ± 1.09 µM
same,average time in mitosis,"parental HeLa cells; Poloppin at GI50 dose (10μM), 60 min without",100 min
same,frequency of aneuploid divisions,"parental HeLa cells; Poloppin at GI50 dose, 4% after DMSO",38%
same,cells with normal metaphase chromosome alignment,U2OS cells,< 5%
same,EC50,"HPAF II; read-out: EC50, % survival, HPAF II, All Stars control siRNA, 72 h",12.4 ± 1.08 µM
same,EC50,"HPAF II; read-out: EC50, % survival, HPAF II, siMET, 72 h",5.6 ± 1.05 µM
